Each structure is given as a SMILES string. Calls of active or inactive are those of the source. No cut-off for these calls is given here.

Test [1] deals with B-cell receptor CD22 (Homo sapiens) (UniProt P20273). Nature of the test: Binding affinity against CD22 adhesion protein;no effect.
Test [2] shares this target. Nature of the test: Binding affinity against CD22 adhesion protein in ELISA competition assay;no effect. Background: ELISA stands for enzyme-linked immunosorbent assay.
The target is the same in test [3]. Briefly: Binding affinity against CD22 adhesion protein; no effect.

Sequence of B-cell receptor CD22 (Homo sapiens) (P20273 whole entry): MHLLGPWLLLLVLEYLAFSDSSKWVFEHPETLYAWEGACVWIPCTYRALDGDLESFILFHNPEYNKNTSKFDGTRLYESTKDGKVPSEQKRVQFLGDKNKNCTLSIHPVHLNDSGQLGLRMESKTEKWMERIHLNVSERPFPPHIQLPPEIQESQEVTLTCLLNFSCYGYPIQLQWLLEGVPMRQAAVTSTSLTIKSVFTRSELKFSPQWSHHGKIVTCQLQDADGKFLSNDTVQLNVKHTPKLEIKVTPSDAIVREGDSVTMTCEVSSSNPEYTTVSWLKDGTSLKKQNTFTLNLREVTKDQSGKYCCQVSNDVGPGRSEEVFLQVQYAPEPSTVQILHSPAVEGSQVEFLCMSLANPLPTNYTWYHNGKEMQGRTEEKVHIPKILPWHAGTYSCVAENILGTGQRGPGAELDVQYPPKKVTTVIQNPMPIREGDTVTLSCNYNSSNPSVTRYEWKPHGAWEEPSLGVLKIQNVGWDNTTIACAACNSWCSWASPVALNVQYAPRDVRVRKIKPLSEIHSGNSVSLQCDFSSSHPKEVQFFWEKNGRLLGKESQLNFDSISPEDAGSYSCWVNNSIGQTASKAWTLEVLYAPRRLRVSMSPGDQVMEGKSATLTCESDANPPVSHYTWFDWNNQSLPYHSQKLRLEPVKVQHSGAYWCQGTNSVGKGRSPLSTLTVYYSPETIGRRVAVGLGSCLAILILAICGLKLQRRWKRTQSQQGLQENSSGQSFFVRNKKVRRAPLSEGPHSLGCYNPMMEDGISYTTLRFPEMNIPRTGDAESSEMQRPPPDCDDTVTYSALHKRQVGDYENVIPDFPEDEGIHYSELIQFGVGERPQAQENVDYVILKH

With `CC(=O)N[C@@H]1[C@@H](Oc2ccccc2[N+](=O)[O-])O[C@@H](CO)[C@H](O)[C@@H]1O[C@@H]1O[C@@H](COS(=O)(=O)O)[C@H](O)[C@H](O)[C@@H]1O`, the result in test [1] was inactive.

Consider `CC(=O)N[C@@H]1[C@@H](O)C[C@](OC[C@H]2O[C@@H](Oc3ccc([N+](=O)[O-])cc3)[C@H](NC(C)=O)[C@@H](O[C@@H]3O[C@H](CO)[C@H](O)[C@H](O)[C@H]3O)[C@@H]2O)(C(=O)O)O[C@H]1C(O)C(O)CO` (stereo partly drawn), for which, in test [2], the outcome was inactive.

`CC(=O)N[C@@H]1[C@@H](Oc2ccccc2[N+](=O)[O-])O[C@@H](COS(=O)(=O)O)[C@H](O)[C@@H]1O[C@@H]1O[C@@H](COS(=O)(=O)O)[C@H](O)[C@H](O)[C@@H]1O`: the result in test [1] was inactive.

`CC(=O)N[C@@H]1[C@@H](Oc2ccccc2[N+](=O)[O-])O[C@@H](CO)[C@H](O)[C@@H]1O[C@@H]1O[C@@H](CO)[C@H](O)[C@H](OS(=O)(=O)O)[C@@H]1O`: the result in test [1] was inactive.

Turning to `O=C(CBr)OCC1OC(Br)C(OC(=O)c2ccccc2)C(OC(=O)c2ccccc2)C1OC(=O)c1ccccc1` (stereo not drawn), the result in test [3] was inactive.

For the compound `CC(=O)N[C@@H]1[C@@H](O)C[C@](OC[C@H]2O[C@H](Oc3ccccc3[N+](=O)[O-])[C@H](NC(C)=O)[C@@H](O[C@@H]3O[C@H](COS(=O)(=O)O)[C@H](O)[C@H](O)[C@H]3O)[C@H]2O)(C(=O)O)O[C@H]1C(O)C(O)CO` (stereo partly drawn), the result in test [1] was inactive.

Consider `CC(=O)N[C@@H]1[C@@H](O)C[C@](OC[C@H]2O[C@@H](Oc3ccc([N+](=O)[O-])cc3)[C@H](NC(C)=O)[C@@H](O[C@@H]3O[C@H](COS(=O)(=O)O)[C@H](O)[C@H](O)[C@H]3O)[C@@H]2O)(C(=O)O)O[C@H]1C(O)C(O)CO` (stereo partly drawn), for which the outcome in test [2] was inactive.

Consider `CC(=O)OCC1OC(Br)C(OC(C)=O)C(OC(=O)CCl)C1OC(C)=O` (stereo not drawn), for which the outcome in test [1] was inactive.

These data come from ChEMBL document CHEMBL1150017, “A convenient synthesis of sulfated and sialyl oligosaccharides as potential ligands for CD22 adhesion protein” (Bioorg Med Chem Lett, 1995).
